Results published in patent US6461997B1, “Triazole sulfones having herbicidal activity” (Monsanto Technology LLC, priority 1999, dated 2002).

Test system: AEGCY (jointed goatgrass)
Experiment: Post-emergence herbicidal activity, cool season
Assay type: in vivo, Aegilops cylindrica
Conditions: abraded plants sprayed at 300, 100, 30 and 10 g/ha; about 14 days after treatment
How it was run: (§1)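 Abraded seedling foliage receives a spray of test compound at four rates, 300 to 10 g/ha, in 50:50 acetone/water at 3,100 l/ha. After about 14 days in an 18/13° C. day/night greenhouse, inhibition is scored against abraded untreated controls and expressed as GR80.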

Compound | Post-emergence activity GR80, AEGCY
CCN(CC)C(=O)n1cnc(S(=O)(=O)C(F)(F)Br)n1 [Example 1, 3-(bromodifluoromethylsulfonyl)-1-(N,N-diethylcarbamoyl)-1,2,4-triazole] | [empty]

Test system: SOLNI (black nightshade)
Experiment: Pre-emergence herbicidal activity, warm season
Assay type: in vivo, Solanum nigrum
Conditions: GR80 = lowest tested rate (300, 100, 30, 10 g/ha) with 80% or greater inhibition; approx. 14 days after treating; 30/21° C.
How it was run: (§2)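 Seeds sown in sterilised fertilised topsoil received surface-applied compound in 50:50 acetone/water, typically at 300, 100, 30 and 10 g/ha, then greenhouse-grown at 30/21° C (warm-season species) or 18/13° C (cool-season species). Percent inhibition versus untreated plants was scored at about 14 days, giving GR80; an asterisk marks activity short of 80% at the top rate.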

Compound | Pre-emergence activity (GR80) SOLNI
CCN(CC)C(=O)n1cnc(S(=O)(=O)C(F)(F)Br)n1 [Example 1, 3-(bromodifluoromethylsulfonyl)-1-(N,N-diethylcarbamoyl)-1,2,4-triazole] | 100 g/ha

Same assay, conditions: Solanum nigrum; pre-emergence application, 10 g/ha; read-out: Percent inhibition, weed SOLNI

Compound | inhibition at 10 g/ha
CCN(CC)C(=O)n1cnc(S(=O)(=O)C(F)(F)Br)n1 [Example 1, 3-(bromodifluoromethylsulfonyl)-1-(N,N-diethylcarbamoyl)-1,2,4-triazole] | 0%

Same assay, conditions: Solanum nigrum; pre-emergence application, 30 g/ha; read-out: Percent inhibition, weed SOLNI

Compound | inhibition at 30 g/ha
CCN(CC)C(=O)n1cnc(S(=O)(=O)C(F)(F)Br)n1 [Example 1, 3-(bromodifluoromethylsulfonyl)-1-(N,N-diethylcarbamoyl)-1,2,4-triazole] | 0%

Same assay, conditions: Solanum nigrum; pre-emergence application, 100 g/ha; read-out: Percent inhibition, weed SOLNI

Compound | inhibition at 100 g/ha
CCN(CC)C(=O)n1cnc(S(=O)(=O)C(F)(F)Br)n1 [Example 1, 3-(bromodifluoromethylsulfonyl)-1-(N,N-diethylcarbamoyl)-1,2,4-triazole] | 0%

Same assay, conditions: Solanum nigrum; pre-emergence application, 300 g/ha; read-out: Percent inhibition, weed SOLNI

Compound | inhibition at 300 g/ha
CCN(CC)C(=O)n1cnc(S(=O)(=O)C(F)(F)Br)n1 [Example 1, 3-(bromodifluoromethylsulfonyl)-1-(N,N-diethylcarbamoyl)-1,2,4-triazole] | 0%

Same assay, conditions: Solanum nigrum; pre-emergence application, 900 g/ha; read-out: Percent inhibition, weed SOLNI

Compound | inhibition at 900 g/ha
CCN(CC)C(=O)n1cnc(S(=O)(=O)C(F)(F)Br)n1 [Example 1, 3-(bromodifluoromethylsulfonyl)-1-(N,N-diethylcarbamoyl)-1,2,4-triazole] | 20%

Test system: ABUTH (velvetleaf)
Experiment: Pre-plant incorporated (PPI) herbicidal activity, warm season
Assay type: in vivo, Abutilon theophrasti
Conditions: Abutilon theophrasti; PPI application, 10 g/ha; read-out: Percent inhibition ABUTH
Experimental: (§3) In another set of tests, the pre-plant incorporated (PPI) activity of compounds of this invention was evaluated on the same species as for the pre-emergence tests described above. In the PPI tests the following procedure, designed to simulate PPI application, was used.
(§4) A pre-prepared topsoil mixture (described above) was placed in a pot and compacted to a depth of 1.0 to 1.25 cm from the top of the pot. Seeds of each of several monocotyledonous and dicotyledonous annual plant species were placed on top of the soil. A sufficient quantity of soil to cover the seeds and level fill the pot was weighed into an open container. A known amount of the test compound was dissolved or suspended in an organic solvent and applied by spraying to this cover soil. The cover soil was thoroughly mixed to distribute the test compound throughout the cover soil, and was then applied as a cover layer over the seeds. Untreated soil was used as a cover layer for control pots. After treatment the plants were placed in a greenhouse where they received 0.64 cm of overhead irrigation. All subsequent watering consisted of a light overhead mist and/or subirrigation as needed for germination and growth. Tables 9 and 10 below relate to warm season plant species which were placed after pre-emergence treatment in a greenhouse with a 30/21° C. day/night temperature regime. Tables 11 and 12 below relates to cool season plant species placed after pre-emergence treatment in a greenhouse or growth chamber with an 18/13° C. day/night temperature regime. Only the compounds of Examples 1, 6, 8, 11, 13 and 15-20 were included in PPI tests.
(§5) Approximately 14 days after planting and treating, the plants were observed and herbicidal efficacy recorded as percent inhibition by comparison with untreated plants.

Compound | inhibition at 10 g/ha
CCN(CC)C(=O)n1cnc(S(=O)(=O)C(F)(F)Br)n1 [Example 1, 3-(bromodifluoromethylsulfonyl)-1-(N,N-diethylcarbamoyl)-1,2,4-triazole] | 0%

Same assay, conditions: Abutilon theophrasti; PPI application, 30 g/ha; read-out: Percent inhibition ABUTH

Compound | inhibition at 30 g/ha
CCN(CC)C(=O)n1cnc(S(=O)(=O)C(F)(F)Br)n1 [Example 1, 3-(bromodifluoromethylsulfonyl)-1-(N,N-diethylcarbamoyl)-1,2,4-triazole] | 0%

Same assay, conditions: Abutilon theophrasti; PPI application, 100 g/ha; read-out: Percent inhibition ABUTH

Compound | inhibition at 100 g/ha
CCN(CC)C(=O)n1cnc(S(=O)(=O)C(F)(F)Br)n1 [Example 1, 3-(bromodifluoromethylsulfonyl)-1-(N,N-diethylcarbamoyl)-1,2,4-triazole] | 0%

Same assay, conditions: Abutilon theophrasti; PPI application, 300 g/ha; read-out: Percent inhibition ABUTH

Compound | inhibition at 300 g/ha
CCN(CC)C(=O)n1cnc(S(=O)(=O)C(F)(F)Br)n1 [Example 1, 3-(bromodifluoromethylsulfonyl)-1-(N,N-diethylcarbamoyl)-1,2,4-triazole] | 20%

Same assay, conditions: Abutilon theophrasti; PPI application, 900 g/ha; read-out: Percent inhibition ABUTH

Compound | inhibition at 900 g/ha
CCN(CC)C(=O)n1cnc(S(=O)(=O)C(F)(F)Br)n1 [Example 1, 3-(bromodifluoromethylsulfonyl)-1-(N,N-diethylcarbamoyl)-1,2,4-triazole] | 80%

Same assay, conditions: pre-plant incorporated; GR80 = lowest tested rate with 80% or greater inhibition; approx. 14 days after treating; 30/21° C.

Compound | PPI activity (GR80) ABUTH
CCN(CC)C(=O)n1cnc(S(=O)(=O)C(F)(F)Br)n1 [Example 1, 3-(bromodifluoromethylsulfonyl)-1-(N,N-diethylcarbamoyl)-1,2,4-triazole] | 100 g/ha

Test system: SINAR (wild mustard)
Experiment: Pre-plant incorporated (PPI) herbicidal activity, cool season
Assay type: in vivo, Sinapis arvensis
Conditions: Brassica; weed, PPI application, 30 g/ha; read-out: Percent inhibition SINAR
Experimental: as §3, §4, §5

Compound | inhibition at 30 g/ha
CCN(CC)C(=O)n1cnc(S(=O)(=O)C(F)(F)Br)n1 [Example 1, 3-(bromodifluoromethylsulfonyl)-1-(N,N-diethylcarbamoyl)-1,2,4-triazole] | 100%

Same assay, conditions: Brassica; weed, PPI application, 100 g/ha; read-out: Percent inhibition SINAR

Compound | inhibition at 100 g/ha
CCN(CC)C(=O)n1cnc(S(=O)(=O)C(F)(F)Br)n1 [Example 1, 3-(bromodifluoromethylsulfonyl)-1-(N,N-diethylcarbamoyl)-1,2,4-triazole] | 100%

Same assay, conditions: Brassica; weed, PPI application, 300 g/ha; read-out: Percent inhibition SINAR

Compound | inhibition at 300 g/ha
CCN(CC)C(=O)n1cnc(S(=O)(=O)C(F)(F)Br)n1 [Example 1, 3-(bromodifluoromethylsulfonyl)-1-(N,N-diethylcarbamoyl)-1,2,4-triazole] | 100%

Same assay, conditions: Brassica; weed, PPI application, 900 g/ha; read-out: Percent inhibition SINAR

Compound | inhibition at 900 g/ha
CCN(CC)C(=O)n1cnc(S(=O)(=O)C(F)(F)Br)n1 [Example 1, 3-(bromodifluoromethylsulfonyl)-1-(N,N-diethylcarbamoyl)-1,2,4-triazole] | 100%

Same assay, conditions: pre-plant incorporated; lowest tested rate with 80% or greater inhibition; about 14 days

Compound | PPI activity GR80, SINAR
CCN(CC)C(=O)n1cnc(S(=O)(=O)C(F)(F)Br)n1 [Example 1, 3-(bromodifluoromethylsulfonyl)-1-(N,N-diethylcarbamoyl)-1,2,4-triazole] | 100 g/ha

Test system: SETFA (giant foxtail)
Experiment: Pre-emergence herbicidal activity, warm season
Assay type: in vivo, Setaria faberi
Conditions: GR80 = lowest tested rate (300, 100, 30, 10 g/ha) with 80% or greater inhibition; approx. 14 days after treating; 30/21° C.
How it was run: as §2

Compound | Pre-emergence activity (GR80) SETFA
CCN(CC)C(=O)n1cnc(S(=O)(=O)C(F)(F)Br)n1 [Example 1, 3-(bromodifluoromethylsulfonyl)-1-(N,N-diethylcarbamoyl)-1,2,4-triazole] | 100 g/ha

Same assay, conditions: Setaria faberi; pre-emergence application, 10 g/ha; read-out: Percent inhibition, weed SETFA

Compound | inhibition at 10 g/ha
CCN(CC)C(=O)n1cnc(S(=O)(=O)C(F)(F)Br)n1 [Example 1, 3-(bromodifluoromethylsulfonyl)-1-(N,N-diethylcarbamoyl)-1,2,4-triazole] | 0%

Same assay, conditions: Setaria faberi; pre-emergence application, 30 g/ha; read-out: Percent inhibition, weed SETFA

Compound | inhibition at 30 g/ha
CCN(CC)C(=O)n1cnc(S(=O)(=O)C(F)(F)Br)n1 [Example 1, 3-(bromodifluoromethylsulfonyl)-1-(N,N-diethylcarbamoyl)-1,2,4-triazole] | 0%

Same assay, conditions: Setaria faberi; pre-emergence application, 100 g/ha; read-out: Percent inhibition, weed SETFA

Compound | inhibition at 100 g/ha
CCN(CC)C(=O)n1cnc(S(=O)(=O)C(F)(F)Br)n1 [Example 1, 3-(bromodifluoromethylsulfonyl)-1-(N,N-diethylcarbamoyl)-1,2,4-triazole] | 40%

Same assay, conditions: Setaria faberi; pre-emergence application, 300 g/ha; read-out: Percent inhibition, weed SETFA

Compound | inhibition at 300 g/ha
CCN(CC)C(=O)n1cnc(S(=O)(=O)C(F)(F)Br)n1 [Example 1, 3-(bromodifluoromethylsulfonyl)-1-(N,N-diethylcarbamoyl)-1,2,4-triazole] | 100%

Same assay, conditions: Setaria faberi; pre-emergence application, 900 g/ha; read-out: Percent inhibition, weed SETFA

Compound | inhibition at 900 g/ha
CCN(CC)C(=O)n1cnc(S(=O)(=O)C(F)(F)Br)n1 [Example 1, 3-(bromodifluoromethylsulfonyl)-1-(N,N-diethylcarbamoyl)-1,2,4-triazole] | 100%

Test system: AGSST (creeping bentgrass)
Experiment: Post-emergence herbicidal activity, cool season
Assay type: in vivo, Agrostis stolonifera
Conditions: abraded plants sprayed at 300, 100, 30 and 10 g/ha; about 14 days after treatment
How it was run: as §1

Compound | Post-emergence activity GR80, AGSST
CCN(CC)C(=O)n1cnc(S(=O)(=O)C(F)(F)Br)n1 [Example 1, 3-(bromodifluoromethylsulfonyl)-1-(N,N-diethylcarbamoyl)-1,2,4-triazole] | [empty]

Test system: CIRAR (canada thistle (seedling))
Experiment: Pre-emergence herbicidal activity, warm season
Assay type: in vivo, Cirsium arvense
Conditions: GR80 = lowest tested rate (300, 100, 30, 10 g/ha) with 80% or greater inhibition; approx. 14 days after treating; 30/21° C.
How it was run: as §2

Compound | Pre-emergence activity (GR80) CIRAR
CCN(CC)C(=O)n1cnc(S(=O)(=O)C(F)(F)Br)n1 [Example 1, 3-(bromodifluoromethylsulfonyl)-1-(N,N-diethylcarbamoyl)-1,2,4-triazole] | 100 g/ha
